{
  "source": "patent US4895933A",
  "about": "“New antitumor agent obtained by microbial stereoselective reduction of 4'-deoxy-4'-iododoxorubicin” (Farmitalia Carlo Erba S.p.A., priority 1987, dated 1990)",
  "key": {"[1]": {"system": "HeLa cells", "assay": "in vitro cytotoxic activity, HeLa cells colony formation", "type": "cell-based, human", "settings": "for IC50: HeLa, read-out: ID50 (dose giving 50% reduction of cell number in comparison with untreated controls)", "source_text": "^(a) Dose giving 50% reduction of cell number in comparison with […]"}, "[2]": {"system": "P388 leukemia cells", "assay": "in vitro cytotoxic activity, P388 cells colony formation", "type": "cell-based", "settings": "for IC50: Mus musculus", "source_text": "^(a) Dose giving 50% reduction of cell number in comparison with\n^(c) P388 leukemia cells."}, "[3]": {"system": "disseminated Gross leukemia", "assay": "in vivo antitumor activity against disseminated Gross leukemia", "set-up": "species or system C3H mice", "settings": "for Toxic deaths (evaluated on the basis of autopsy findings on dead mice): C3H mice; for T/C % (median survival time of treated mice/median survival time of controls × 100): day after tumor injection, in parentheses: single experiments", "protocol": "The \"in vivo\" antitumor activity, FCE 24883 (II) was tested against disseminated Gross leukemia. C3H mice were injected intravenously with 2.10^6 cell/mouse and treated with compounds under study 24 hours after the tumor injection.\n^(a) C3H mice were injected i.v. with 2 × 10^6 leukemia\ncells and treated i.v. with the compounds the day after the tumor\n^(b) (Median survival time of treated mice/median survival time of\n^(c) Evaluated on the basis of autopsy findings on dead mice."}, "[4]": {"assay": "solubility", "type": "physicochemical"}, "[5]": {"system": "experimental tumors", "assay": "activity on experimental tumors (general statement)", "settings": "in vivo"}, "[6]": {"settings": "human cervix epithelioid carcinoma cells"}, "[7]": {"settings": "P388 leukemia cells, read-out: ID50 (dose giving 50% reduction of cell number in comparison with untreated controls)"}},
  "note": "Like-named read-outs stand apart in the source and are kept apart here.",
  "data": [
    {"compound": "COc1cccc2c1C(=O)c1c(O)c3c(c(O)c1C2=O)C[C@@](O)([C@@H](O)CO)C[C@@H]3O[C@H]1C[C@H](N)[C@H](I)[C@H](C)O1", "note": "[FCE 24883 (II), 4'-deoxy-13(S)-dihydro-4'-iododoxorubicin]", "values": [
      {"measurement": "cytotoxic activity, potency in comparison with compound I and doxorubicin", "setting": "[1]; HeLa cells, in vitro", "value": "as potent as 4'-deoxy-4'-iododoxorubicin (I) and doxorubicin"},
      {"measurement": "IC50", "setting": "[1]; [6]", "value": 8, "unit": "ng/mL"},
      {"measurement": "IC50", "setting": "[2]; [7]", "value": 3.5, "unit": "ng/mL"},
      {"measurement": "cytotoxic activity, potency in comparison with compound I and doxorubicin", "setting": "[2]; P388 cells, in vitro", "value": "as potent as 4'-deoxy-4'-iododoxorubicin (I) and doxorubicin"},
      {"measurement": "Toxic deaths (evaluated on the basis of autopsy findings on dead mice)", "setting": "[3]; 4 mg/Kg i.v.", "value": "0/10"},
      {"measurement": "T/C % (median survival time of treated mice/median survival time of controls × 100)", "setting": "[3]; 4 mg/Kg i.v.", "value": "180 (180) %"},
      {"measurement": "Toxic deaths (evaluated on the basis of autopsy findings on dead mice)", "setting": "[3]; 5.2 mg/Kg i.v.", "value": "0/20"},
      {"measurement": "T/C % (median survival time of treated mice/median survival time of controls × 100)", "setting": "[3]; 5.2 mg/Kg i.v.", "value": "220 (220, 220) %"},
      {"measurement": "Toxic deaths (evaluated on the basis of autopsy findings on dead mice)", "setting": "[3]; 6.8 mg/Kg i.v.", "value": "0/20"},
      {"measurement": "T/C % (median survival time of treated mice/median survival time of controls × 100)", "setting": "[3]; 6.8 mg/Kg i.v.", "value": "220 (220, 220) %"},
      {"measurement": "Toxic deaths (evaluated on the basis of autopsy findings on dead mice)", "setting": "[3]; 8.8 mg/Kg i.v.", "value": "5/9"},
      {"measurement": "T/C % (median survival time of treated mice/median survival time of controls × 100)", "setting": "[3]; 8.8 mg/Kg i.v.", "value": "140 (140) %"},
      {"measurement": "toxicity displayed", "setting": "[3]; at the active doses", "value": "minor toxicity"},
      {"measurement": "antitumor potency in comparison with compound I", "setting": "[3]; at the optimal dose", "value": "as potent as 4'-deoxy-4'-iododoxorubicin (I)"},
      {"measurement": "antitumor potency in comparison with doxorubicin", "setting": "[3]; at the optimal dose", "value": "more potent than doxorubicin"},
      {"measurement": "antitumor activity, evaluated as median survival time of treated over control mice, in comparison with I and doxorubicin", "setting": "[3]; mouse, in vivo", "value": "can be compared with those of I and doxorubicin"},
      {"measurement": "solubility of the free base", "setting": "[4]; free base, polar organic solvents and aqueous alcohols", "value": "soluble in polar organic solvents and aqueous alcohols"},
      {"measurement": "solubility of the hydrochloride in organic solvents", "setting": "[4]; hydrochloride, organic solvents", "value": "slighty soluble in organic solvents"},
      {"measurement": "solubility of the hydrochloride in water and lower alcohols", "setting": "[4]; hydrochloride, water and lower alcohols", "value": "soluble in water and lower alcohols"},
      {"measurement": "activity on experimental tumors in comparison with compound I", "setting": "[5]", "value": "comparable with that of 4'-deoxy-4'-iododoxorubicin (I)"}
    ]},
    {"compound": "COc1cccc2c1C(=O)c1c(O)c3c(c(O)c1C2=O)C[C@@](O)(C(=O)CO)C[C@@H]3O[C@H]1C[C@H](N)[C@H](I)[C@H](C)O1", "note": "[FCE 21954 (I), 4'-deoxy-4'-iododoxorubicin]", "values": [
      {"measurement": "IC50", "setting": "[1]; [6]", "value": 10.4, "unit": "ng/mL"},
      {"measurement": "IC50", "setting": "[2]; [7]", "value": 2.1, "unit": "ng/mL"},
      {"measurement": "Toxic deaths (evaluated on the basis of autopsy findings on dead mice)", "setting": "[3]; 4 mg/Kg i.v.", "value": "0/20"},
      {"measurement": "T/C % (median survival time of treated mice/median survival time of controls × 100)", "setting": "[3]; 4 mg/Kg i.v.", "value": "240 (240, 240) %"},
      {"measurement": "Toxic deaths (evaluated on the basis of autopsy findings on dead mice)", "setting": "[3]; 5.2 mg/Kg i.v.", "value": "4/20"},
      {"measurement": "T/C % (median survival time of treated mice/median survival time of controls × 100)", "setting": "[3]; 5.2 mg/Kg i.v.", "value": "260 (260, 260) %"},
      {"measurement": "Toxic deaths (evaluated on the basis of autopsy findings on dead mice)", "setting": "[3]; 6.8 mg/Kg i.v.", "value": "19/20"},
      {"measurement": "T/C % (median survival time of treated mice/median survival time of controls × 100)", "setting": "[3]; 6.8 mg/Kg i.v.", "value": "145 (160, 130) %"}
    ]},
    {"compound": "COc1cccc2c1C(=O)c1c(O)c3c(c(O)c1C2=O)C[C@@](O)(C(=O)CO)C[C@@H]3O[C@H]1C[C@H](N)[C@H](O)[C@H](C)O1", "note": "[DX, Doxorubicin]", "values": [
      {"measurement": "IC50", "setting": "[1]; Homo sapiens", "value": 10.8, "unit": "ng/mL"},
      {"measurement": "IC50", "setting": "[2]; P388, read-out: ID50 (dose giving 50% reduction of cell number in comparison with untreated controls)", "value": 8, "unit": "ng/mL"},
      {"measurement": "Toxic deaths (evaluated on the basis of autopsy findings on dead mice)", "setting": "[3]; 10 mg/Kg i.v.", "value": "0/20"},
      {"measurement": "T/C % (median survival time of treated mice/median survival time of controls × 100)", "setting": "[3]; 10 mg/Kg i.v.", "value": "200 (200, 200) %"},
      {"measurement": "Toxic deaths (evaluated on the basis of autopsy findings on dead mice)", "setting": "[3]; 13 mg/Kg i.v.", "value": "0/20"},
      {"measurement": "T/C % (median survival time of treated mice/median survival time of controls × 100)", "setting": "[3]; 13 mg/Kg i.v.", "value": "225 (230, 220) %"},
      {"measurement": "Toxic deaths (evaluated on the basis of autopsy findings on dead mice)", "setting": "[3]; 16.9 mg/Kg i.v.", "value": "2/20"},
      {"measurement": "T/C % (median survival time of treated mice/median survival time of controls × 100)", "setting": "[3]; 16.9 mg/Kg i.v.", "value": "250 (260, 240) %"}
    ]}
  ]
}
